Values joined by “and” are separate entries in the source; they are usually repeats but may differ in a detail not shown here. Equal entries are not always repeated. Where two headings read alike, the source gives them in different places.
Tests used:
[1] = test system: L1210 cells; assay: DNA cleavage (intact chromatin precipitation) in L1210 cells; assay type: cell-based, murine
Experimental: FIG. 19. Comparison of the concentration-dependent effects of novel TT analogs and known DNA-damaging anticancer drugs on DNA cleavage in L1210 cells in vitro. […] After lysing the cells in HLB containing 0.2% Triton X-100, the detergent-soluble DNA fragments present in the supernatants and the intact chromatin DNA remaining in the pellets were separated by centrifugation and their radioactivity estimated by LSC. Results are expressed as [cpm in supernatant/cpm in supernatant+pellet]×100 at 24 h. For untreated controls (5.3±0.6% DNA fragmentation; striped area), the supernatant is 741±79 cpm and the pellet is 13,293±1,446 cpm.
FIG. 20. Comparison of the abilities of novel TT analogs to induce DNA cleavage in L1210 cells in vitro. Cells containing prelabeled DNA were incubated at 37° C. for 24 h in the presence or absence (control) of 7 μM concentrations of the indicated compounds. The protocol of the experiment and the determination of the results were identical to those of FIG. 12.
FIG. 22. Irreversibility of the effects of novel TT analogs and known DNA-damaging anticancer drugs on DNA cleavage in L1210 cells in vitro. Cells containing prelabeled DNA were incubated at 37° C. for various periods of time in the presence or absence (control) of 10 μM TT1 or TT2 and 1.6 μM DAU or CPT. The protocol of the experiment and the determination of the results at 24 h were identical to those of FIG. 19, except that the drugs were either maintained in the medium for the whole 24-h period of incubation (open) or removed after the first 3 (striped) and 8 h (closed). After spinning and washing the appropriate samples to remove the drugs, cells were resuspended in 0.5 ml of fresh medium to complete the 24-h period of incubation in the absence of drugs. Vehicle-treated controls were similarly spun and washed at 3 and 8 h. Bars: means±SD (n=3).
Drug-induced DNA cleavage was determined by intact chromatin precipitation, using L1210, HL-60-S, HL-60-RV and HL-60-R8 cells which were prelabeled with 1 μCi of ^3H-thymidine for 2 h at 37° C., washed with 3×1 ml of ice-cold PBS, collected by centrifugation, and resuspended in fresh FCS-containing RPMI 1640 medium at a density of about 1×10^6 cells/0.5 ml for L1210 and 0.5×10^6 cells/0.5 ml for HL cells. Except when otherwise specified, such cells containing prelabeled DNA were then exposed for 24 h to TTs and drugs known to induce DNA fragmentation. After centrifugation at 200×g for 10 min to discard the drugs and wash the cells, the intact cell pellets were lysed for 30 min in 0.5 ml of HLB, centrifuged at 12,000×g for 30 min to collect the supernatants, and resuspended in 0.5 ml of HLB. After another similar centrifugation, the radioactivities in the pooled supernatants (detergent-soluble low molecular weight DNA fragments) and the pellet (intact chromatin DNA) were determined by LSC: % DNA fragmentation=[cpm in supernatant/cpm in supernatant+pellet]×100. Before being counted in 6 ml of Bio-Safe NA, the intact pelleted chromatin was incubated for 2 h at 60° C. in the presence of 0.6 ml of NCS tissue solubilizer (Amersham).

[2] = test system: HL-60-R8 cells; assay: HL-60-R8 (MDR) cell viability assay (MTS:PMS); assay type: cell-based, human; details: read-out: IC50, decrease of HL-60-R8 cell viability
Description: The MDR HL-60-RV and HL-60-R8 cells were developed in Melvin S. Center's laboratory (Kansas State University) and similarly maintained in RPMI 1640 medium in the absence of drugs (Marsh W, et al, Cancer Res 46: 4053-4057, 1986; McGrath T et al, and Center M S: Biochem Biophys Res Commun 145: 1171-1176, 1987; Marsh W and Center M S: Cancer Res 47: 5080-5086, 1987; McGrath T, et al, Biochem Pharmacol 38: 3611-3619, 1989; Marquardt D, et al, Cancer Res 50: 1426-1430, 1990; Marquardt D and Center M S: J Natl Cancer Inst 83: 1089-1109, 1991; Krishnamachary N and Center M S; Cancer Res 53: 3658-3661, 1993). Every 4 weeks, these HL-60-RV and HL-60-R8 sublines were exposed to 41 nM DAU for 48 h to stabilize their MDR phenotype. This concentration of DAU, which is not cytotoxic to MDR HL-60 sublines, was removed from the culture medium at least 48 h before experimentation. […] RFs were determined by dividing the IC50 of the MDR cells by that of the sensitive WT parent cell line.

[3] = test system: L1210 cells; assay: RNA synthesis (3H-uridine incorporation) in L1210 cells; assay type: cell-based, murine
Experimental: FIG. 16. Comparison of the concentration-dependent inhibitions of RNA synthesis by the TT analog TT2 (●) and DAU (∘) in L1210 cells in vitro. […] RNA synthesis in vehicle-treated control cells was 47,117±3,204 cpm (100±7%; striped area). The blank value (1,746±155 cpm) for cells incubated and pulse-labeled at 2° C. with 2 μCi of ^3H-uridine has been substracted from the results.
Except when otherwise specified, the cells were incubated at 37° C. for 90 min in the presence or absence of drugs and then pulse-labeled for an additional 30 min with 1 μCi of [methyl-^3H]thymidine (50 Ci/mmol; Amersham Corp., Arlington Heights, Ill.) to estimate the rate of DNA synthesis. […] After drying the filters, the radioactivity bound to the acid-precipitable material was determined by liquid scintillation counting (LSC) in 10 ml of Bio-Safe NA (Researeh Products International Corp., Mount Prospect, Ill.).

[4] = test system: HL-60-S cells; assay: DNA synthesis in HL-60-S cells; assay type: cell-based, human; details: for IC50: read-out: IC50, inhibition of DNA synthesis in HL-60-S cells

IC50 ([2]; day 2) [nM]	IC50 ([2]; day 4) [nM]	IC50 ([3]; 3 h drug + 1 h pulse-labeling, read-out: IC50, inhibition of RNA synthesis in L1210 cells)	IC50 [4] [nM]	Structure (SMILES)	DNA fragmentation at 24 h after short exposure ([1]; 10 μM, drug removed after 3 and 8 h)	DNA cleavage (% DNA fragmentation) ([1]; 10 μM, whole 24 h)	concentration at which induction of DNA cleavage peaks ([1]; DNA cleavage at 24 h, internucleosomal fragmentation at 48-72 h) [µM]	times higher TT2 than DAU concentrations needed for the same peak of DNA cleavage ([1]; L1210, 24 h)	times TT2 inhibits DNA synthesis less effectively than DAU ([4]; HL-60-S) [times]	DNA cleavage (% DNA fragmentation) ([1]; 1.6 μM, 24 h) [%]	DNA fragmentation at 24 h, drug maintained or removed ([1]; 1.6 μM, maintained or removed after 3 or 8 h)	IC50 ([2]; Homo sapiens, 48 h) [nM]	IC50 ([2]; Homo sapiens, 96 h) [nM]	times DAU inhibits RNA synthesis more effectively than TT2 ([3]; L1210)	IC50 ([4]; Homo sapiens) [nM]
1600	350	6000 nM and ~6000 nM	1800	COC1=CC(=O)C2=C(C1=O)C1C3=C(C(=O)C=CC3=O)C2c2ccccc21 (stereo not drawn) [TT2, 2-Methoxy-9,10-dihydro-9,10-[1′,2′]benzenoanthracene-1,4,5,8-tetraone]	58-67%	61% and 63%	4 to 10	about 6 times	9	–	–	–	–	–	–
–	–	–	–	COc1cccc2c1C(=O)c1c(O)c3c(c(O)c1C2=O)C[C@@](O)(C(C)=O)C[C@@H]3O[C@H]1C[C@H](N)[C@H](O)[C@H](C)O1 [DAU, daunomycin, reference compound]	–	–	–	–	–	45	33-41%	2500	380	about 7.5 times	210

Source: patent publication US6828450B2, “Triptycene analogs” (Kansas State University Research Foundation, priority 2000, dated 2004)
